Assay results published in US10968227B2, “Isoquinoline ether compounds as mGluR4 allosteric potentiators, compositions, and methods of treating neurological dysfunction” (Vanderbilt University, priority 2016, dated 2021).
Converted amounts (≈) assume the structure as drawn.

How the values were obtained:
[1] = biological target: 1A2 (Homo sapiens (Human), UniProt P05177); experiment: CYP 1A2 inhibition; type: in vitro ADME
[2] = Human plasma fraction unbound; type: in vitro ADME; details: read-out: Human Fu Plasma
[3] = Rat brain fraction unbound; type: in vitro ADME; details: read-out: Rat Fu Brain
[4] = Rat in vivo clearance; details: read-out: Rat in Vivo CL
[5] = Brain-plasma partition; type: in vivo; details: rat; for unbound brain-to-plasma partition coefficient (Kp,uu): unbound brain-plasma ratio, read-out: Brain-Plasma Kp,ω
[6] = biological target: 3A4 (Homo sapiens (Human), UniProt P08684); experiment: CYP 3A4 inhibition; type: in vitro ADME
Chain of 3A4 (P08684 whole entry): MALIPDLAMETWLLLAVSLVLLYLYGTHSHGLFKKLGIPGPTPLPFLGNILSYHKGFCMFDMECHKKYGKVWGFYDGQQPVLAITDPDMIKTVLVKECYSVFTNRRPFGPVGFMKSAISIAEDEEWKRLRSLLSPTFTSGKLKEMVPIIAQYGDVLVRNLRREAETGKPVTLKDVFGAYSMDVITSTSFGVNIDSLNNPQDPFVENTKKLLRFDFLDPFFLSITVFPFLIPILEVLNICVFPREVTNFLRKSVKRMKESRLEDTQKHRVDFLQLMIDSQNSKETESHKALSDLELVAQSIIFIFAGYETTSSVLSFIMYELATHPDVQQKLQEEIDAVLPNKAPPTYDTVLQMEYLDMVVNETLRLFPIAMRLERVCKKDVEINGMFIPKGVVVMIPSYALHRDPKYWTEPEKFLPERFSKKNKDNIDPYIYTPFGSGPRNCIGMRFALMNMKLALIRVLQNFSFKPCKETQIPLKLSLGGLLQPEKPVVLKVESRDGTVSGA

[7] = Human intrinsic and hepatic clearance; type: in vitro ADME
[8] = biological target: 2C9 (Homo sapiens (Human), UniProt P11712); experiment: CYP 2C9 inhibition; type: in vitro ADME
Chain of 2C9 (P11712 whole entry): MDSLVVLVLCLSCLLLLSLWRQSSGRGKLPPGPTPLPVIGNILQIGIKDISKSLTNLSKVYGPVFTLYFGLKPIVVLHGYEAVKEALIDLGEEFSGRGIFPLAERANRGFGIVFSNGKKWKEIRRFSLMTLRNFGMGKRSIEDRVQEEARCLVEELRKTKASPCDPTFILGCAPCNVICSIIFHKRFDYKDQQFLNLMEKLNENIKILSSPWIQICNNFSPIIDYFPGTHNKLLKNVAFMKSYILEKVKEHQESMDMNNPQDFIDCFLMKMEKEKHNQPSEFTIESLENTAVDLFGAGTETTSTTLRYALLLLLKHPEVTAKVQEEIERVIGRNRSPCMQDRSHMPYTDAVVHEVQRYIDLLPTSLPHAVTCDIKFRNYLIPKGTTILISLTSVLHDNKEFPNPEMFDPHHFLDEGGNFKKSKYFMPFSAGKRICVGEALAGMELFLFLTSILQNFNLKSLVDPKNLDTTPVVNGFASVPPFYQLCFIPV

[9] = biological target: 2D6 (Homo sapiens (Human), UniProt P10635); experiment: CYP 2D6 inhibition; type: in vitro ADME
Chain of 2D6 (P10635 whole entry): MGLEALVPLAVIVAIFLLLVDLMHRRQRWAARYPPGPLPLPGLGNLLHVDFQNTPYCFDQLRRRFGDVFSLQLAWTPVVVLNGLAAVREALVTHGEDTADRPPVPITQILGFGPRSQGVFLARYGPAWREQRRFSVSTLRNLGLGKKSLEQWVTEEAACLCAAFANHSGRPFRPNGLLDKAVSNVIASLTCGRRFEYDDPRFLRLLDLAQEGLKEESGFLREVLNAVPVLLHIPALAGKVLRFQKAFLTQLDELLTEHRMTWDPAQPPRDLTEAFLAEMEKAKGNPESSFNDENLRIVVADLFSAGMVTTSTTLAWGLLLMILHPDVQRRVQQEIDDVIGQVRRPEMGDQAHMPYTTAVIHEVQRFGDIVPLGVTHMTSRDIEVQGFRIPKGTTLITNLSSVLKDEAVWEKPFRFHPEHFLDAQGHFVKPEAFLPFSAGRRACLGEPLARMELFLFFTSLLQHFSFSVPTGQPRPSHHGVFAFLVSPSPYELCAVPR

[10] = Rat plasma fraction unbound; type: in vitro ADME; details: read-out: Rat Fu Plasma
[11] = Kinetic solubility; type: physicochemical; details: kinetic from dmso stock
[12] = Rat intrinsic and hepatic clearance; type: in vitro ADME

Chain of 1A2 (P05177 whole entry): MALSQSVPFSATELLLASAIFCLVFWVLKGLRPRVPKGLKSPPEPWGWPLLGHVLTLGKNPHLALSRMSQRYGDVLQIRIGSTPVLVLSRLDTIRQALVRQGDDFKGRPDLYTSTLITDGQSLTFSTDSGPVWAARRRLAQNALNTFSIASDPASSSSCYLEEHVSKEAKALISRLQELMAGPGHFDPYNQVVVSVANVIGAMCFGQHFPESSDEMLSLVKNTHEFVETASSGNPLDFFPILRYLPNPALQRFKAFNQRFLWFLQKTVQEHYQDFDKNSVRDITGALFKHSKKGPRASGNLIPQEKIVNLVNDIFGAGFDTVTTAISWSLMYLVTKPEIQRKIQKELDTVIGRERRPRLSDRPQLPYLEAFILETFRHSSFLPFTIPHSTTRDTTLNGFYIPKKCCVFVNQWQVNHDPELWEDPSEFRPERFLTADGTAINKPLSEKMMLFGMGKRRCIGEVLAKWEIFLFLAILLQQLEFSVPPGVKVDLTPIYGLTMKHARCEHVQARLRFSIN

Row | SMILES | IC50 [1] [µM] | fraction unbound [2] | fraction unbound [3] | clearance [4] [mL/min/kg] | Kp [5] | unbound brain-to-plasma partition coefficient (Kp,uu) [5] | IC50 [6] [µM] | CLint scaled [7] [mL/min/kg] | Human CLhep [7] [mL/min/kg] | IC50 [8] [µM] | IC50 [9] [µM] | fraction unbound [10] | solubility kinetic [11] [µM] | CLint scaled [12] [mL/min/kg] | Rat CLhep [12] [mL/min/kg]
1 | C[C@H]1C[C@H](Oc2nccc3cc(Nc4n[nH]c5ncccc45)ccc23)CO1 [Compound 88] | 17 | 0.01 | 0.003 | 43.3 | 2.22 | 0.21 | > 30 | 18.1 | 9.71 | > 30 | > 30 | 0.032 | 0.5 ± 0.2 (≈ 0.181 µg/mL) | 79.9 | 37.3
2 | c1cnc2c(Nc3ccc4c(O[C@H]5CCCOC5)nccc4c3)n[nH]c2c1 [Compound 61] | 5.86 | 0.028 | 0.005 | 61 | 1.83 | 0.23 | 4.29 | 44 | 14.2 | 6.04 | 19.7 | 0.04 |  | 333 | 57.8
3 | c1cc2cc(Nc3n[nH]c4nccnc34)ccc2c(OCC2COCCO2)n1 (centres unmarked) [Compound 86] | > 30 | 0.063 | 0.018 |  | 0.35 | 0.11 | > 30 | 19 | 10.0 | > 30 | > 30 | 0.057 | 0.6 ± 0.2 (≈ 0.227 µg/mL) | 58.1 | 31.7
4 | COCCOc1nccc2cc(Nc3n[nH]c4ncccc34)ccc12 [Compound 74] | > 30 | 0.038 | 0.007 |  | 0.59 | 0.1 | > 30 | 32.3 | 12.7 | > 30 | > 30 | 0.041 | 0.8 ± 0.3 (≈ 0.268 µg/mL) | 252 | 54.8
5 | C[C@H]1C[C@H](Oc2nccc3cc(Nc4n[nH]c5cccnc45)ccc23)CO1 [Compound 87] | 15.8 |  |  | 39.1 |  |  | > 30 | 16 | 9.07 | 1.85 | > 30 |  | 0.7 ± 0.4 (≈ 0.253 µg/mL) | 61 | 32.6

The next lines start with the values.

Row | IC50 [1] [µM] | fraction unbound [2] | fraction unbound [3] | clearance [4] [mL/min/kg] | Kp [5] | unbound brain-to-plasma partition coefficient (Kp,uu) [5] | IC50 [6] [µM] | CLint scaled [7] [mL/min/kg] | Human CLhep [7] [mL/min/kg] | IC50 [8] [µM] | IC50 [9] [µM] | fraction unbound [10] | solubility kinetic [11] [µM] | CLint scaled [12] [mL/min/kg] | Rat CLhep [12] [mL/min/kg] | SMILES
6 | 7.99 | 0.02 | 0.007 | 59.8 | 1.22 | 0.2 | 27.7 | 29.1 | 12.2 | 10.6 | > 30 | 0.042 | 4.9 ± 0.6 (≈ 1.7 µg/mL) | 94.8 | 40.3 | c1cnc2c(Nc3ccc4c(O[C@H]5CCOC5)nccc4c3)n[nH]c2c1 [Compound 64]
7 | 5.68 | 0.02 | 0.008 | 81.6 | 1.44 | 0.39 | 12.3 | 16.1 | 8.79 | 3.9 | 23.5 | 0.03 |  | 94.1 | 40.1 | c1cnc2c(Nc3ccc4c(OC5CCOCC5)nccc4c3)n[nH]c2c1 [Compound 60]
8 | > 30 | 0.032 | 0.014 | 116 | 1.29 | 0.33 | > 30 | 32.4 | 12.7 | > 30 | > 30 | 0.055 |  | 122 | 44.4 | c1cc2cc(Nc3n[nH]c4nccnc34)ccc2c(O[C@@H]2CCOC2)n1 [Compound 58]
